Laboratory results as given in patent US4202902A, “Lipogenesis control by cyclopropane-carboxylic acids, esters and amides” (Shell Oil Company, priority 1979, dated 1980).

Assays:
swine adipose tissue = assay: In vitro inhibition of lipogenesis (incorporation of radioactive glucose carbon into lipid) in swine adipose tissue slices; format: cell-based; settings: Sus scrofa, 100 micrograms per milliliter, 37° C., 2 hours, 5% DMSO, compared to control without test compound, triplicate, read-out: Percent Inhibition of lipogenesis
From the text: The manner in which they cause this effect is not known with certainty; it is believed that they interfere with the synthesis of fatty acids in the tissue. Their effectiveness for this purpose has been ascertained by immersing samples of swine adipose tissue in a liquid medium containing radioactive glucose and the test chemical for a period time, then isolating the lipid from the treated tissue and determining the incorporation of the ratioactive carbon into the lipid by means of scintillation counting techniques. These tests were conducted in swine adipose tissue because in swine the primary site of lipogenesis--i.e., fatty acid synthesis--appears to be adipose tissue.
Described in more detail, the tests were conducted according to the following general procedure.
150 milligrams of slices of swine adipose tissue were incubated at 37° C. for 2 hours with shaking in 3 milliliters of Krebs-Ringer bicarbonate solution containing one-half the usual calcium ion concentration, 60 micromoles of glucose, 0.5 microCurie of glucose-U^14 C, and 100 milliunits of insulin, and 5% dimethyl sulfoxide (DMSO). The test compounds were added as a solution or suspension in DMSO and were present at a concentration of 100 micrograms per milliliter of the incubation mixture.
The incubation was terminated by addition of 0.25 milliliter of 1 N sulfuric acid. The resulting mixture was extracted with a total of 25 milliliters of chloroform:methanol (2:1 v/v). The extracts were washed according to Folch et al. (J. Biol. Chem., 226, 497-509, (1957)), air dried, and counted in a liquid scintillation counter with 15 milliliters of counting fluid (two parts toluene containing 0.4% w/v New England Nuclear Omnifluor: 1 part Triton X-100). The tests were conducted in triplicate and were accompanied by control tests in which all ingredients,proportions and conditions were the same except that no test compound was included. From the data obtained were calculated the percent inhibition of lipid synthesis by the test compound in each case. The data obtained from these tests were set out in Table I, as the percent inhibition of lipogenesis compared to the results obtained in the control tests wherein only the test compound was omitted.

[1] = system: swine adipose tissue lipid synthesis; assay: In vivo inhibition of swine adipose tissue lipid synthesis (pigs dosed in feed, biopsy slices incubated with radioactive glucose); settings: approx. 25 mg/kg per day for seven days in ration, compared to control animals; for lipogenic rate after 2 weeks: biopsy 1 week after withdrawal of drug; for effect on lipogenesis after 1 week: biopsy after 1 week of drug administration
Method: Compounds 1 and 6 were tested to determine the in vivo inhibition of swine adipose tissue lipid synthesis, as follows: pigs weighing about 20 kilograms were administered a fixed drug dose of approximately 25 milligrams of drug per kilogram of animal body weight per day for seven consecutive days. The drug was formulated to contain 10%w active ingredient and was prepared as coarse granules using 4%w plasdene as the granulating agent and lactose as the carrier. […] The daily drug or placebo dose was added to 1.2 kilograms of swine ration; about one-third of the total was fed at 0800, 1200, and 1600 hours. Biopsy samples were obtained from the dorsal subcutaneous adipose tissue (ca 1 gram) in the neck region before drug administration, after 1 week of drug administration, and 1 week after withdrawal of drug. Adipose tissue slices were prepared from the biopsy sample, and in vitro lipogenesis was determined with radioactive glucose as substrate. The incubation was similar to that previously described except that there was no DMSO or test compound in the flasks.

With `CCCCCCCC[C@@H]1C[C@H]1C(=O)OCC` (relative stereo) [Compound 1, Ethyl 2-octylcyclopropanecarboxylate (trans)] the inhibition at 100 µg/mL (swine adipose tissue) was over 20%, the “lipogenic rate after 2 weeks” value [1] was “significantly reduced the lipogenic rate” and the “effect on lipogenesis after 1 week” value [1] was “neither of the test compounds had significantly affected lipogenesis”.
For `CCCCCCCCC[C@@H]1C[C@H]1C(=O)OCC` (relative stereo) [Compound 2, Ethyl 2-nonylcyclopropanecarboxylate (trans-)], the inhibition at 100 µg/mL (swine adipose tissue) was 27%.
`CCCCCCCC[C@@H]1C[C@H]1C(N)=O` (relative stereo) [Compound 4, 2-Octylcyclopropanecarboxamide (trans)] showed an inhibition at 100 µg/mL (swine adipose tissue) of over 20%.
Work on `CCCCCCCCC[C@@H]1C[C@H]1C(=O)O` (relative stereo) [Compound 5, 2-Nonylcyclopropanecarboxylic acid (trans)] yielded an inhibition at 100 µg/mL (swine adipose tissue) of 79%.
With `CCCCCCCC[C@@H]1C[C@H]1C(=O)O` (relative stereo) [Compound 6, 2-octylcyclopropanecarboxylic acid (trans)] the inhibition at 100 µg/mL (swine adipose tissue) was 77%, the “lipogenic rate after 2 weeks” value [1] was “significantly reduced the lipogenic rate” and the “effect on lipogenesis after 1 week” value [1] was “neither of the test compounds had significantly affected lipogenesis”.
Molecule `CCCCCCCCCCCCCC[C@@H]1C[C@H]1C(=O)O` (relative stereo) [Compound 7, 2-tetradecylcyclopropanecarboxylic acid (trans)] has an inhibition at 100 µg/mL (swine adipose tissue) of 46%.
Work on `CCCCCCCCC[C@@H]1C[C@H]1C(N)=O` (relative stereo) [Compound 8, 2-Nonylcyclopropanecarboxycarboxamide (trans)] yielded an inhibition at 100 µg/mL (swine adipose tissue) of 34%.
`O=C(O)[C@@H]1C[C@H]1c1ccccc1` (relative stereo) [Compound 13, 2-phenylcyclopropane-1-carboxylic acid (trans)] was tested, and the inhibition at 100 µg/mL (swine adipose tissue) was 32%.
Molecule `CCCCC1CC1C(=O)OCC` (stereo not drawn) [Compound 3, Ethyl 2-butylcyclopropanecarboxylate] has an inhibition at 100 µg/mL (swine adipose tissue) of 24%.
`CCOC(=O)C1(C#N)CC1c1ccccc1` (stereo not drawn) [Compound 9, Ethyl 1-cyano-2-phenylcyclopropanecarboxylate] gave an inhibition at 100 µg/mL (swine adipose tissue) of 57%.
With `CCCCCCC1CC1(C#N)C(=O)OCC` (stereo not drawn) [Compound 10, Ethyl 1-cyano-2-hexylcyclopropanecarboxylate (trans-)] the inhibition at 100 µg/mL (swine adipose tissue) was 44%.
`N#CC1(C(=O)O)CC1c1ccccc1` (stereo not drawn) [Compound 11, 1-Cyano-2-phenylcyclopropanecarboxylic acid] was tested, and the inhibition at 100 µg/mL (swine adipose tissue) was 49%.
In the case of `CCOC(=O)C1CC1COC(C)=O` (stereo not drawn) [Compound 12, Ethyl 2-((acetyloxy)methyl)cyclopropanecarboxylate], the inhibition at 100 µg/mL (swine adipose tissue) is reported as 31%.
For `CCOC(=O)C1CC1(C#N)c1ccccc1` (stereo not drawn) [Compound 14, Ethyl 2-cyano-2-phenylcyclopropanecarboxylate], the inhibition at 100 µg/mL (swine adipose tissue) was 53%.
